Data: patent publication US9884854B2, “N-[(pyrimidinylamino)propanyl]-and N[(pyrazinylamino)proppanyl]arylcarboxamides” (Boehringer Ingelheim International GmbH, priority 2016, dated 2018)

Molecular target: T1, human Orexin 1 receptor (Homo sapiens, UniProt O43613)
T1 construct: stably expressing the full-length human Orexin 1 receptor and the aequorin photoprotein; expressed in transfected cells; host or cells: CHO-K1 (CHO-K1/hOx1), co-expressing aequorin
T1 sequence (O43613 1-425): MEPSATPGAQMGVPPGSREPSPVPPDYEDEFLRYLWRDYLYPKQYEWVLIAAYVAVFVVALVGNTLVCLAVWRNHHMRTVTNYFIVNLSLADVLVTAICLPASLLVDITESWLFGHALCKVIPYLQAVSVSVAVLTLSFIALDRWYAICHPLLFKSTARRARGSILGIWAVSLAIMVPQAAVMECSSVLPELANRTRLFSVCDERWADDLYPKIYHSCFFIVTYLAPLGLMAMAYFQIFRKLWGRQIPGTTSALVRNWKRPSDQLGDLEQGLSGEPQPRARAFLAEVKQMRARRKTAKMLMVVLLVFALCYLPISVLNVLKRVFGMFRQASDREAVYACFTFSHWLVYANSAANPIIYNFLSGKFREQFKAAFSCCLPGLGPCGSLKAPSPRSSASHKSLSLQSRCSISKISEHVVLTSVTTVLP
Test: Assay A: OX1R IP1 (in vitro OX1R potency)
Type: cell-based
Conditions: for Kb: 50 nM Orexin A concentration
From the text: Activation of the orexin receptors expressed in cell lines results in an increase in intracellular IP3 concentration. IP1, a downstream metabolite of IP3, accumulates in cells following receptor activation and is stable in the presence of LiCl. Using Homogeneous Time-Resolved Fluorescence technology with Lumi4-Tb cryptate (commercially available from Cisbio Bioassay.) and a suitable fluorescence plate reader. […] This technique is used to characterize pharmacological modification of the orexin receptors.
A. In Vitro Testing of OX1R Potency: OX1R IP1
IP1 measurements are performed in CHO-K1 cells stably expressing the full-length human Orexin 1 receptor and the aequorin photoprotein. Cells are cultivated in Ham's nutrient mixture F12 medium with 10% fetal calf serum, in a 37° C., 95% humidity and 5% CO2 incubator. The CHO-K1/hOx1 cell mass is expanded to larger cell numbers. The cells are obtained as frozen cells in cryo-vials and stored until use at −150° C. […] In preparation for the assay, 24 hours before the assay, the cells are thawed at 37° C. and immediately diluted with cell culture medium. After centrifugation, the cell pellet is re-suspended in medium and then distributed into the assay plates with a density of 10000 cells/25 μL per well. The plates are incubated for one hour at room temperature to reduce edge effects before they are incubated for 24 hours at 37° C./5% CO2. Compounds are prepared by an 8-point serial dilution in DMSO and a final dilution step into assay buffer (HBSS with 20 mM HEPES, 0.1% BSA and 50 mM LiCl, pH 7.4) to ensure a final DMSO concentration of 1% in the assay.
On the day of the assay, cells in the plate are washed twice with 60 μL assay buffer (20 μL buffer remained in the wells after washing), followed by adding 5 μL per well of compounds diluted in assay buffer. After 15 minutes of incubation at room temperature 5 μL per well of Orexin A peptide (final concentration: 0.5 nM, and/or 50 nM) dissolved in assay buffer is added to the assay plate. The assay plate is incubated for 60 minutes at 37° C. Then 5 μl per well of Anti-IP1-Cryptate Tb solution and 5 μl per well of IP1-d2 dilution are added and the plate is incubated for a further 60 minutes light protected at room temperature. […] 8-point four parametric non-linear curve fitting and determination of IC50 values and Hill slopes is performed using a regular analysis software e.g. AssayExplorer (Accelrys).
Kb values from Assay A (OX1R) and Assay B (OX2R) can then provide a selectivity ratio which is independent of the agonist (Orexin A) concentration.

`CCN(C(=O)c1ccccc1-n1nccn1)[C@@H](C)CNc1ncc(C(F)(F)F)cn1` [Example 1] was tested, and the “OX2R Kb/OX1R Kb” value was 404 and the Kb was 0.048 nM.

`CCN(C(=O)c1nc(C)ccc1-n1nccn1)[C@@H](C)CNc1ncc(C(F)(F)F)cn1` [Example 9] was tested, and the “OX2R Kb/OX1R Kb” value was 310, the Kb was 0.106 nM and the higher potency (versus Example 46 in WO2016/034882) was over 10 fold. For the same compound, the higher potency (versus Example 73 in WO2016/034882) was “approximately 3 fold”.

For `CCN(C(=O)c1cnc(C)nc1-c1ccccc1)[C@@H](C)CNc1ncc(C(F)(F)F)cn1` [Example 17], the “OX2R Kb/OX1R Kb” value was 2500 and the Kb was 0.0216 nM.

`CCN(C(=O)c1cccc(F)c1-n1nccn1)[C@@H](C)CNc1ncc(C(F)(F)F)cn1` [Example 18] was tested, and the “OX2R Kb/OX1R Kb” value was 352 and the Kb was 0.0512 nM.
